ChEMBL document CHEMBL1136125, “Comparative molecular field analysis (CoMFA) of phthalazine derivatives as phosphodiesterase IV inhibitors” (Bioorg Med Chem Lett, 2003)

Legend:
Phosphodiesterase 4 [1] = molecular target: T1, Phosphodiesterase 4 (Homo sapiens, UniProt P27815+Q08499+Q07343+Q08493); test: In vitro inhibitory concentration against phosphodiesterase 4.; type: protein assay
Phosphodiesterase 4 [2] = molecular target: T1, Phosphodiesterase 4; test: Inhibitory concentration against phosphodiesterase 4.; type: protein assay

CCc1nnc(Cc2c(Cl)cncc2Cl)c2cc(OC3CCCC3)c(OC)cc12
IC50 (Phosphodiesterase 4 [1]): 0.075 µM
Log IC50 (Phosphodiesterase 4 [2]): -7.12

COc1ccc2c(Cc3c(Cl)cncc3Cl)nncc2c1OCCCCCc1ccccc1
Log IC50 (Phosphodiesterase 4 [2]): -7.25

COc1cc2c(C)nnc(Cc3c(Cl)cncc3Cl)c2cc1OC1CCCC1
IC50 (Phosphodiesterase 4 [1]): 0.146 µM
Log IC50 (Phosphodiesterase 4 [2]): -6.84

COc1ccc2c(Cc3c(Cl)cncc3Cl)nncc2c1OC1CCCO1 (stereo unspecified)
IC50 (Phosphodiesterase 4 [1]): 0.153 µM
